Test results as given in patent US9809640B2, “ApoE peptide dimers and uses thereof” (priority 2010, dated 2017).
Where two headings read alike, the source gives them in different places. Non-standard residues stand in square brackets, D forms with d. Residues, ends and D or L forms follow the SMILES beside them. No end group written: not given here. Arg(NO2) = N=C(NCCC[C@H](N)C(=O)O)N[N+](=O)[O-]; Aib = CC(C)(N)C(=O)O

What was measured:
[1] = Mouse toxicity, maximum tolerated dose by intravenous injection; conditions: in vivo, maximum dose by intravenous injection without deaths after 24 hrs
Text: (§1) We also evaluated the various peptides for efficacy in suppressing nitric oxide production induced by LPS stimulation of BV2 microglia cells as a measure of anti-inflammatory activity as well as the maximum dose tolerated in mice (Table I and FIG. 6A). For the LPS assay, EC50 is the concentration of compound that caused a 50% suppression of nitric oxide release from BV2 cells following LPS stimulation. For mouse toxicity, MTD is the maximum dose of the compound that can be given by intravenous injection without causing deaths after 24 hrs. […] Coupling the ApoE domain to a protein transduction domain further enhanced the potency of the dimers.

[2] = test system: MDA-MB-231 breast cancer cells; type: cell-based; conditions: 48 hours, MTT
Experimental: (§2) FIG. 14A: Dose response curve of COG445 on proliferation of U87 (open circles) and MDA-MB-231 (filled circles) cells as measured by MTT reduction. FIG. 14B: Dose response curve of COG445 on proliferation of MDA-MB-231 cells as measured by cell count.
Next, we examined the potency of an ApoE peptide dimer versus the monomeric form on proliferation of the MDA-MB-231 breast cancer cell line. MDA-MB-231 cells were treated with various concentrations of either COG435 (monomer; SEQ ID NO: 90) or COG493 (a BMOE-linked dimer of COG 435) peptides for 48 hours. Following peptide treatment, cells were quantified using a MTT assay.
(§3) Because COG445 inhibited Akt activation and downstream signaling, we examined the effects of COG445 on cellular proliferation. Adherent MB231 and U87 cells were grown for ˜24 hours in the presence of COG445 and cellular proliferation was measured by MTT reduction. […] Furthermore, COG445 inhibited MB231 cellular proliferation as determined by cell count (FIG. 14B). Approximately 6×10^4 cells were plated in growth media (RPMI+10% FBS) for 24-hours with increasing concentrations of COG445. […] However at concentrations ≧1 μM COG445, there appears to be a loss of cells. This is partially explained by decreased proliferation, although it is possible that the rate of cellular degradation was increased in the presence of COG445.

U87MG glioblastoma cells = type: cell-based; conditions: MTT
Experimental: as §2
To determine whether ApoE peptide dimers were cytotoxic to other types of cancer, we evaluated the effect of three different ApoE BMOE-linked peptide dimers (COG449, COG492, COG493; see Table I) on the growth characteristics of U87MG glioblastoma cells. Various concentrations of COG449, COG492, COG493 or Sorafenib were used to treat U87MG glioblastoma cells and viable cells were quanititated using MTT. Sorafenib, which has previously been reported to be cytotoxic to glioblastoma cells (Yang et al. (2010) Mol Cancer Ther., Vol. 9(4):953-962), was used as a positive control.
as §3

BV2 microglia cells [3] = test: LPS-induced nitric oxide production in BV2 microglia cells; type: cell-based; conditions: for EC50: 50% suppression of nitric oxide release from BV2 cells following LPS stimulation
Experimental: FIG. 1. COG 112 inhibits LPS-induced production of inflammatory cytokines in BV2 microglia cells. Inhibition curves for COG112 in the production of NO (green squares), TNFα (red diamonds), and IL-6 (blue triangles) by BV2 microglia. Compounds were added to the final concentrations indicated on the graph along with 100 ng/mL of LPS. After 24 hours the media was removed and assayed by two-site ELISA (BioSource) and quantitated relative to a standard curve on the same plate.
FIG. 3. NO Inhibition curve for COG449. BV2 microglia were treated with COG449 at the final concentrations indicated on the graph, along with 100 ng/mL of LPS. After 24 hours the media was removed and assayed by two-site ELISA (BioSource) and quantitated relative to a standard curve on the same plate.
as §1
Low passage BV2 microglial cell cultures are maintained in 10% HI (Heat Inactivated) FBS DMEM media (supplemented with MEM NEAA (Non-Essential Amino Acids), sodium pyruvate and Pen-Strep) and continuously cultured until needed. To determine the IC50 values for NO production, peptides are added to BV2 cultures in 1% HI FBS DMEM media (supplemented with MEM NEAA and sodium pyruvate) at a range of final assay concentrations from 1.0 μM in 2 fold dilutions to 7.8 nM followed immediately by addition of LPS (100 ng/mL final concentration) as previously described (Laskowitz et al. (2001) Exp Neurol, Vol. 167(1): 74-85). After incubating for 18±1 hours, conditioned media is removed for analysis of nitrite (the stable oxidation product of released nitric oxide) by the Griess colorimetric assay (Promega). Remaining cells are assayed for viability in an MTT assay (Promega) and the nitrite assay values are normalized for each concentration using the percent viability of cells in the MTT assay. […] Typically, the absence of LPS exposure to BV2 cells results in levels below the limit of detection in our assays. Similarly, addition of any of the peptides up to 25 μM without LPS results in undetectable NO levels.

B-CLL cells = test: Cytotoxicity on patient-derived B-CLL cells (MTS assay); conditions: for Fold Change: CLL EC50 relative to COG056 (rev133) = 1.0
Text: FIG. 5A: Dose response curves for COG449 cytotoxicity on CLL cells from 4 leukemia patients. Human CLL cells were isolated from blood samples and assayed for COG449 cytotoxicity. […] FIG. 5B: Dose response curves for COG445 on CLL cells from 7 patients or normal B-cells from 5 patients. Human CLL cells and PBMC were isolated and assayed for cytotoxicity of COG445.
Blood from CLL patients was collected and CD5+/CD19+ CLL cells were isolated using the RosetteSep™ Human B-Cell Enrichment Cocktail, according to the manufacturer's instructions, and treated with COG compounds. Compounds were applied to B-CLL cells (2.5×10^5 cells/well in a 96 well plate), after which the cells were treated for 72 hours.
Normal B-cells from volunteers and B-CLL cells from patients are isolated using the RosetteSep™ Human B Cell Enrichment Cocktail according to the manufacturer's instructions. This method depletes whole blood of T cells, monocytes, and NK cells using a proprietary antibody cocktail that cross-links unwanted cells in human whole blood to multiple red blood cells (RBCs) forming immunorosettes. This increases the density of the unwanted (rosetted) cells, such that they pellet along with the free RBCs when centrifuged over a buoyant density medium such as Ficoll-Paque®. This leaves the highly enriched B-cell or B-CLL cells at the interface between Ficoll and the plasma. The antibodies in the cocktail contain […] and anti-CD16 antibodies to remove T cells, monocytes, and NK cells, respectively. The purity of these B-cell and B-CLL preparations is then determined by flow cytometry.
For cytotoxicity assays, 3×10^6 CLL cells/well are cultured in 24 well tissue culture plates in 1.5 mL of Hybridoma SFM™ (Gibco, Long Island, N.Y.) as described by Levesque et al. (2001, 2003). All cultures are incubated at 37° C., 5% CO2 in air.

BV2 microglia cells [4] = conditions: previously shown; cited from earlier work
normal B-cells = test: Cytotoxicity on normal B-cells from volunteers; type: cell-based, human; conditions: normal B-cells from volunteers
[5] = Pharmacokinetics of subcutaneously injected COG1410; conditions: plasma, sc
Experimental: Male C57Bl/6 mice (20-24 g, Charles River, Raleigh, N.C.) are injected with a peptide dimer subcutaneously at a volume of 5 mL/kg in the scruff of the neck. Ten minutes before the desired timepoint, mice are anesthetized and at the desired timepoint blood is drawn by cardiac puncture. Blood from at least 4 mice is used for each timepoint with the samples collected at 5, 10, 15, 30, 45, 60, 90, 120, 180 and 240 minutes for the initial analysis. The samples are processed and the pharmacokinetic analysis is completed. […] In the event that the half life has not been reached, a repeat of the experiment is performed that uses one timepoint before the observed Tmax, a timepoint at the observed Tmax and timepoints extending long enough to adequately determine the half life based on extrapolation of the previous observations of clearance from the plasma. Analysis of three concentrations of the peptide dimer is also performed to determine if there is a dose dependent effect on the pharmacokinetic parameters.

TNFα = test: LPS-induced TNFα production in BV2 microglia; type: cell-based; conditions: BV2 cells
Experimental: (§4) FIG. 1. […] Compounds were added to the final concentrations indicated on the graph along with 100 ng/mL of LPS. After 24 hours the media was removed and assayed by two-site ELISA (BioSource) and quantitated relative to a standard curve on the same plate.
(§5) A series of fusion peptides with COG133 conjugated to a PTD were prepared by chemical synthesis.

IL-6 = test: LPS-induced IL-6 production in BV2 microglia; type: cell-based; conditions: BV2 cells
Experimental: as §4, §5

BV2 cells = test: LD50 of COG112 (safety window versus suppression in BV2 cells); type: cell-based
Experimental: We have previously shown that the addition of a protein transduction domain (PTD), such as an antennapedia peptide, to the apoE-mimetic COG133 peptide (LRVRLASHLRKLRKRLL (SEQ ID NO: 3)) enhances its anti-inflammatory activity. A series of fusion peptides with COG133 conjugated to a PTD were prepared by chemical synthesis.

[6] = read-out: CLL EC50, B-CLL cells from patients, 72 hours, MTS assay

Molecule	MTD at 24 h [1] [mg/kg]	EC50 (BV2 microglia cells [3]) [nM]	Fold Change (B-CLL cells)	EC50 (B-CLL cells; [6]) [nM]	anti-inflammatory activity relative to COG133 in NO release assays (BV2 microglia cells [4])	EC50 (normal B-cells) [nM]	other results
CC(=O)N[C@@H](Cc1c[nH]c2ccccc12)C(=O)N[C@@H](CCCCN)C(=O)N[C@@H](CCCCN)C(=O)N[C@@H](CSC1CC(=O)N(CCN2C(=O)CC(SC[C@H](NC(=O)[C@H](CCCCN)NC(=O)[C@H](CCCCN)NC(=O)[C@H](Cc3c[nH]c4ccccc34)NC(C)=O)C(=O)N[C@@H](CC(C)C)C(=O)N[C@@H](CCCNC(=N)N)C(=O)N[C@H](C(=O)N[C@@H](CCCNC(=N)N)C(=O)N[C@@H](CC(C)C)C(=O)N[C@@H](C)C(=O)N[C@@H](CO)C(=O)N[C@@H](Cc3c[nH]cn3)C(=O)N[C@@H](CC(C)C)C(=O)N[C@@H](CCCNC(=N)N)C(=O)N[C@@H](CCCCN)C(=O)N[C@@H](CC(C)C)C(=O)N[C@@H](CCCNC(=N)N)C(=O)N[C@@H](CCCCN)C(=O)N[C@@H](CCCNC(=N)N)C(=O)N[C@@H](CC(C)C)C(=O)N[C@@H](CC(C)C)C(N)=O)C(C)C)C2=O)C1=O)C(=O)N[C@@H](CC(C)C)C(=O)N[C@@H](CCCNC(=N)N)C(=O)N[C@H](C(=O)N[C@@H](CCCNC(=N)N)C(=O)N[C@@H](CC(C)C)C(=O)N[C@@H](C)C(=O)N[C@@H](CO)C(=O)N[C@@H](Cc1c[nH]cn1)C(=O)N[C@@H](CC(C)C)C(=O)N[C@@H](CCCNC(=N)N)C(=O)N[C@@H](CCCCN)C(=O)N[C@@H](CC(C)C)C(=O)N[C@@H](CCCNC(=N)N)C(=O)N[C@@H](CCCCN)C(=O)N[C@@H](CCCNC(=N)N)C(=O)N[C@@H](CC(C)C)C(=O)N[C@@H](CC(C)C)C(N)=O)C(C)C (some centres unmarked) [COG493, WKK-C-LRVRLASHLRKLRKRLL (SEQ ID NO: 90) <BMOE> WKK-C-LRVRLASHLRKLRKRLL (SEQ ID NO: 90)]	20						cytotoxicity to MDA-MB-231 cells, dimer versus monomer COG435 [2]: significantly more cytotoxic; cytotoxicity to U87MG cells (U87MG glioblastoma cells): cytotoxic
CC(=O)N[C@@H](CC(C)C)C(=O)N[C@@H](CCCNC(=N)N)C(=O)N[C@H](C(=O)N[C@@H](CCCNC(=N)N)C(=O)N[C@@H](CC(C)C)C(=O)N[C@@H](C)C(=O)N[C@@H](CO)C(=O)NC(C)(C)C(=O)N[C@@H](CC(C)C)C(=O)N[C@@H](CCCCN)C(=O)N[C@@H](CCCNC(=N)N)C(=O)N[C@@H](CC(C)C)C(=O)N[C@@H](CCCNC(=N)N)C(=O)N[C@@H](CCCCN)C(=O)N[C@@H](CCCNC(=N)N[N+](=O)[O-])C(=O)N[C@@H](CC(C)C)C(=O)N[C@@H](CC(C)C)C(N)=O)C(C)C [COG248, LRVRLAS(Aib)LKRLRK(nitroR)LL (SEQ ID NO: 4)] (Ac-LRVRLAS[Aib]LKRLRK[Arg(NO2)]LL-NH2)		900	5.5	2300	improved anti-inflammatory activity		
CC(=O)N[C@@H](C)C(=O)N[C@@H](CO)C(=O)NC(C)(C)C(=O)N[C@@H](CC(C)C)C(=O)N[C@@H](CCCNC(=N)N)C(=O)N[C@@H](CCCCN)C(=O)N[C@@H](CC(C)C)C(=O)NC(C)(C)C(=O)N[C@@H](CCCCN)C(=O)N[C@@H](CCCNC(=N)N)C(=O)N[C@@H](CC(C)C)C(=O)N[C@@H](CC(C)C)C(N)=O [COG1410, AS(Aib)LRKL(Aib)KRLL (SEQ ID NO: 5)] (Ac-AS[Aib]LRKL[Aib]KRLL-NH2; N-terminus and C-terminus assumed)	15					> 20000	EC50 (B-CLL cells; read-out: EC50 anti-CLL cytotoxic activity, B-CLL cells): 5700 nM; Tmax [5]: 20 to 30 min; half-life [5]: 60 to 90 min
Ac-RQIKIWFQNRRMKWKKCLRVRLASHLRKLRKRLL-NH2 [COG112, RQIKIWFQNRRMKWKK-C-LRVRLASHLRKLRKRLL (SEQ ID NO: 1)]	28	< 1000	9.2	1400		> 20000	IC50 (BV2 microglia cells [3]; BV2 cells, LPS 100 ng/mL, read-out: IC50 for NO production/release): 21 nM; IC50 (TNFα): 58 nM; IC50 (IL-6): 12 nM; LD50 (BV2 cells): 7 µM; safety window, LD50 versus effective suppression concentrations (BV2 cells; versus 12-58 nM): > 120 fold
LRVRLAS(Aib)LRKLR(K-Ac)RLL (SEQ ID NO: 35) (LRVRLAS[Aib]LRKLRK(Ac)RLL) [COG345]					improved anti-inflammatory activity		
